IC50 data for 46 molecules are collected here from PubChem BioAssay AID624167 (Sanford-Burnham Center for Chemical Genomics, 2012).

Active and inactive are the calls of the source.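 How the source made its calls: active means mean IC50 for reducing PEG3 promoter reporter signal at or below a set limit, with IC50 above the limit in both counter screens; inactive means the rest, including counter screen hits.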

The IC50 is the concentration that gives 50% inhibition.

Common to all, as to assay: inhibition of PEG-3 promoter-driven reporter – cell-based, HeLa, luciferase, CREF/GAPDH counter-screen panel, dose response (AID 624167)
In one test the test system is Rat fibroblasts (CREF). Particulars: CREF/GAPDH counter-screens. (In general: A counterscreen serves to expose hits that act by an unwanted route or on another target.)
Test [1] relates to PEG-3. The following applies: HeLa PEG-Prom luciferase reporter, overnight, CREF/GAPDH counter-screens.
Test [2] addresses PEG-3 (UniProt Q6IN02). Particulars: HeLa PEG-Prom luciferase reporter, overnight, CREF/GAPDH counter-screens, mean of runs. (In general: Reporter assays use an easily measured gene product as a stand-in for the process of interest.)
[3] abbreviates: run 1, dose range 1, individual replicate IC50 per panel.
[4] abbreviates: run 2, dose range 1, individual replicate IC50 per panel.

PEG-3 (UniProt Q6IN02), sequence (Q6IN02 whole entry, looked up): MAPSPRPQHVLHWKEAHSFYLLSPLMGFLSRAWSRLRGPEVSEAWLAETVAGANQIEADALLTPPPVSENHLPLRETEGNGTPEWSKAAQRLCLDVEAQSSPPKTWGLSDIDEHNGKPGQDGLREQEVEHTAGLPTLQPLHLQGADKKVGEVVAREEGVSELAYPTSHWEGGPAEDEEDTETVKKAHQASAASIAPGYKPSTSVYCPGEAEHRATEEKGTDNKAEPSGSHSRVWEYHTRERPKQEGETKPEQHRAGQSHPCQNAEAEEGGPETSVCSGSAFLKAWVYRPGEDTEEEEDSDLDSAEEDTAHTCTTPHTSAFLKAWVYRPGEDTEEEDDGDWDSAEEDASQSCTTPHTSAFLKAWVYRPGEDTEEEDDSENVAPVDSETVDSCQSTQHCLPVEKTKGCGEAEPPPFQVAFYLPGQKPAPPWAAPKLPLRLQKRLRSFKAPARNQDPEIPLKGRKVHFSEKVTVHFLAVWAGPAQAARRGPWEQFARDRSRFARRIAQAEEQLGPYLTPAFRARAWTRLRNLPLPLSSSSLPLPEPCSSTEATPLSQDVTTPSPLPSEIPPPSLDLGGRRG

On to `O=C(c1ccc(Cl)cc1)N1CCCCC(Sc2nnc(-c3ccc4c(c3)OCO4)o2)C1=O` (stereo not drawn), for which the IC50 with Rat fibroblasts (CREF) (mean of runs) is 2.25 µM; in the test with Rat fibroblasts (CREF) (setting [3]), 3.87 µM; in the test with Rat fibroblasts (CREF) (setting [4]) it was 0.643 µM; with PEG-3 [1] (setting [3]) it was 0.669 µM; in the test on PEG-3 [1] (setting [4]), 3.91 µM; on PEG-3 [2] it was 2.29 µM.
For the molecule `Cc1nc(-c2ccc(NC(=O)c3ccco3)cc2)cs1`, the IC50 with Rat fibroblasts (CREF) (mean of runs) is 0.433 µM; in the test with Rat fibroblasts (CREF) (setting [3]) it was 0.43 µM; with Rat fibroblasts (CREF) (setting [4]), 0.436 µM; in the test with PEG-3 [1] (setting [3]) it was 1.39 µM; in the test on PEG-3 [1] (setting [4]) it was 1.69 µM; at PEG-3 [2] it was 1.54 µM.
On to `C[C@@H]1C[C@@H]([C@H](O)CC2CC(=O)NC(=O)C2)C(=O)[C@@H](C)C1`, for which the IC50 in the test on Rat fibroblasts (CREF) (mean of runs) is 8.14 µM; in the test on Rat fibroblasts (CREF) (setting [3]), 1.85 µM; in the test with Rat fibroblasts (CREF) (setting [4]) it was 14.4 µM; in the test with PEG-3 [1] (setting [3]) it was 1.65 µM; in the test on PEG-3 [1] (setting [4]), 0.373 µM; at PEG-3 [2], 1.01 µM.
For `COc1ccc(C(=O)O/N=C(\N)c2ccccn2)cc1`, the IC50 in the test with Rat fibroblasts (CREF) (mean of runs) is 1.62 µM; with Rat fibroblasts (CREF) (setting [3]) it was 1.32 µM; in the test on Rat fibroblasts (CREF) (setting [4]) it was 1.93 µM; with PEG-3 [1] (setting [3]) it was 3.11 µM; with PEG-3 [1] (setting [4]) it was 0.926 µM; on PEG-3 [2], 2.02 µM.
Turning to `COc1cc(/C=N/O)ccc1OCc1ccc(C(=O)O)cc1`, the IC50 in the test on Rat fibroblasts (CREF) (mean of runs) was 9.43 µM; with Rat fibroblasts (CREF) (setting [3]) it was 10.1 µM; with Rat fibroblasts (CREF) (setting [4]), 8.8 µM; with PEG-3 [1] (setting [3]) it was 1.71 µM; with PEG-3 [1] (setting [4]) it was 1.51 µM; on PEG-3 [2], 1.61 µM.
For the molecule `Cc1nc2cc(-c3ccccc3)sc2c(=O)n1N`, the half-maximal inhibitory concentration (IC50) in the test with Rat fibroblasts (CREF) (mean of runs) was 3.4 µM; in the test with Rat fibroblasts (CREF) (setting [3]), 3.94 µM; in the test with Rat fibroblasts (CREF) (setting [4]), 2.87 µM; with PEG-3 [1] (setting [3]), 1.49 µM; in the test with PEG-3 [1] (setting [4]) it was 1.34 µM; at PEG-3 [2], 1.41 µM.
On to `Cc1ccccc1OCC(=O)Nc1cccc(C(=O)O)c1`, for which the half-inhibitory concentration (IC50) with Rat fibroblasts (CREF) (mean of runs) is 18.4 µM; with Rat fibroblasts (CREF) (setting [3]) it was 35.8 µM; in the test with Rat fibroblasts (CREF) (setting [4]), 1.11 µM; in the test on PEG-3 [1] (setting [3]), 1.6 µM; in the test on PEG-3 [1] (setting [4]) it was 2.1 µM; on PEG-3 [2], 1.85 µM.
Consider `Cc1ccc(C(=O)Nc2ncc([N+](=O)[O-])s2)cc1`, for which the IC50 with Rat fibroblasts (CREF) (mean of runs) was 8.85 µM; in the test with Rat fibroblasts (CREF) (setting [3]), 5.94 µM; in the test with Rat fibroblasts (CREF) (setting [4]), 11.8 µM; in the test on PEG-3 [1] (setting [3]) it was 2.01 µM; in the test on PEG-3 [1] (setting [4]) it was 3.45 µM; on PEG-3 [2], 2.73 µM.
`Brc1ccc(N/N=C(/N=Nc2nn[nH]n2)c2ccccc2)cc1`: the concentration for half-maximal inhibition (IC50) in the test on Rat fibroblasts (CREF) (mean of runs) was 10.2 µM; in the test on Rat fibroblasts (CREF) (setting [3]), 10 µM; in the test with Rat fibroblasts (CREF) (setting [4]) it was 10.4 µM; in the test with PEG-3 [1] (setting [3]), 0.76 µM; in the test on PEG-3 [1] (setting [4]) it was 1.25 µM; on PEG-3 [2] it was 1 µM.
Turning to `CCOc1ccc2nc(NC(=O)c3ccccn3)sc2c1`, the IC50 with Rat fibroblasts (CREF) (mean of runs) is 3.5 µM; in the test on Rat fibroblasts (CREF) (setting [3]), 2.81 µM; in the test on Rat fibroblasts (CREF) (setting [4]) it was 4.18 µM; in the test on PEG-3 [1] (setting [3]) it was 4.39 µM; in the test with PEG-3 [1] (setting [4]) it was over 100 µM. Moreover, the IC50 entry on PEG-3 [2] was “inactive”.
For `O=C(/C=C/c1cc(Br)ccc1O)c1ccco1`, the values for the IC50 with PEG-3 [1] (setting [3]), in the test with PEG-3 [1] (setting [4]) and on PEG-3 [2] were 16.1 µM, 8.44 µM and 12.3 µM, respectively.
Take `N#Cc1c(N)nc(SCc2ccncc2)c(C#N)c1-c1cccs1`: the results for the IC50 in the test with PEG-3 [1] (setting [3]), with PEG-3 [1] (setting [4]) and on PEG-3 [2] were 21.4 µM, 12.8 µM and 17.1 µM, respectively.
For `COC(=O)c1cc(=O)n(Cc2ccco2)c(=Nc2ccc(F)cc2)s1`, in that order: 17.6 µM, 17.9 µM and 17.8 µM.
For `CN(C)CC(O)COc1ccc(C(C)(C)c2ccc(OCC(O)CN(C)C)cc2)cc1` (stereo not drawn), in that order: 26.8 µM, over 100 µM and “inactive”.
For `COc1ccc(-n2cc(CNC3CCN(C)CC3)c(-c3cccc(F)c3)n2)cc1`, in that order: 26 µM, 15.3 µM and “inactive”.
In the case of `CCCCCCCCCC[N+](C)(C)CC/C=C1/c2ccccc2Sc2ccc(Cl)cc21`, the IC50 was 14.9 µM in the test on PEG-3 [1] (setting [3]), 8.43 µM with PEG-3 [1] (setting [4]) and 11.7 µM on PEG-3 [2].
For `CC1(C)CC(NC(=O)c2cccc(S(=O)(=O)N(Cc3ccccc3)c3ccccc3)c2)CC(C)(C)N1` the same measures were 18.6 µM, 18.9 µM and 18.8 µM.
For `COc1ccc(C2c3ccc4ccccc4c3Oc3ncn(CCCO)c(=N)c32)cc1` (stereo not drawn), in that order: 22.8 µM, 17 µM and 19.9 µM.
For `COc1ccc(CN(C)C(=O)C(Cc2ccccc2)NC(=O)c2ccccc2)cc1F` (stereo not drawn) the same measures were 60.5 µM, 65.3 µM and “inactive”.
In the case of `CCCc1ccc(C(=O)O/N=C(\N)c2ccccn2)cc1`, the concentration for half-maximal inhibition (IC50) was found to be 36.5 µM with PEG-3 [1] (setting [3]) and 16.6 µM in the test on PEG-3 [1] (setting [4]). Also, the IC50 entry at PEG-3 [2] is “inactive”.
For `COc1ccc(S(=O)(=O)N2c3ccccc3OCC2c2ccccc2)cc1` (stereo not drawn), in that order: over 100 µM, over 100 µM and > 100 µM (inactive).
For `CN(C)CCCN(C(=O)c1ccc(C(=O)c2ccccc2)cc1)c1nc2cc3c(cc2s1)OCO3`, in that order: 18.8 µM, 13.3 µM and 16 µM.
For `COc1cccc(-c2nnc3n2N=C(C(C)(C)C)CS3)c1` the same measures were 14.1 µM, 21.5 µM and 17.8 µM.
As to `COc1ccc(C23CC4CC(CC(C4)C2)C3)cc1C(=O)NCCN(C)C`, the IC50 with PEG-3 [1] (setting [3]) was determined as 20.6 µM; in the test with PEG-3 [1] (setting [4]) it was 29.9 µM. The IC50 entry at PEG-3 [2] was “inactive”.
For `CCCCCCOc1ccc(/C(C)=N/NC2=NCCN2)cc1` the same measures were 15.7 µM, 8.2 µM and 11.9 µM.
For `COc1ccc(-c2cc(C(=O)N(C)Cc3ccccc3F)c3ccccc3n2)cc1OC`, in that order: 23.9 µM, 24.1 µM and “inactive”.
On to `CCCCn1nnnc1C(CCSC)N1CCC(n2c(=O)[nH]c3ccccc32)CC1` (stereo not drawn), for which the IC50 in the test on PEG-3 [1] (setting [3]) is 34.4 µM; in the test with PEG-3 [1] (setting [4]), 70.3 µM. The IC50 entry at PEG-3 [2] is “inactive”.
For `COc1ccccc1C1c2ccc3ccccc3c2Oc2ncn(CCCO)c(=N)c21` (stereo not drawn), in that order: 17.4 µM, 14.2 µM and 15.8 µM.
Turning to `O=C(Cn1ncc(Cl)c(Cl)c1=O)N1CCN(Cc2ccccc2)CC1`, the IC50 was 19.5 µM with PEG-3 [1] (setting [3]), 8.48 µM with PEG-3 [1] (setting [4]) and 14 µM at PEG-3 [2].
Take `CC1=NN(c2cccc(C(=O)O)c2)C(=O)/C1=C\C=C/c1ccccc1`: the values for the IC50 in the test on PEG-3 [1] (setting [3]), in the test with PEG-3 [1] (setting [4]) and on PEG-3 [2] were 17.7 µM, 12 µM and 14.8 µM, respectively.
For `COc1ccc(-c2cc(C(=O)N(C)Cc3cccc(OC)c3OC)c3ccccc3n2)cc1OC` the same measures were 12.7 µM, 71.2 µM and “inactive”.
For `c1ccc(C[C@H]2CNCCN2CCCCC2CCCCC2)cc1` the same measures were 20.1 µM, 14.8 µM and 17.5 µM.
For `N=c1c2c(-c3ccccc3)c(-c3ccccc3)n(Cc3ccccc3)c2ncn1CCO`, in that order: 18.8 µM, 10.6 µM and 14.7 µM.
For the molecule `CCCN(CC(=O)Nc1ccccc1C)C(=O)CCl`, the concentration for half-maximal inhibition (IC50) is 56.1 µM in the test on PEG-3 [1] (setting [3]) and over 100 µM in the test on PEG-3 [1] (setting [4]). For the same molecule, the IC50 entry on PEG-3 [2] is “inactive”.
For `Cc1ccc(N(Cc2cc(=O)[nH]c3ccccc23)C(=O)CCl)c(C)c1`, the figures for the IC50 in the test with PEG-3 [1] (setting [3]) and in the test on PEG-3 [1] (setting [4]) were 22.9 µM and 29.4 µM, respectively. Besides, the IC50 result on PEG-3 [2] was “inactive”.
For `O=C(C=Cc1ccccn1)c1ccccc1`, in that order: 20.7 µM, 12.5 µM and 16.6 µM.
For the molecule `COc1cc(-c2cc(C(=O)Nc3cc(S(=O)(=O)N4CCOCC4)ccc3C)c3ccccc3n2)cc(OC)c1OC`, the values for the IC50 with PEG-3 [1] (setting [3]), in the test with PEG-3 [1] (setting [4]) and at PEG-3 [2] were 11.1 µM, 12.5 µM and 11.8 µM, respectively.
For `CCN(CC)CCN1CCN(c2cncc(-c3ccc4ccccc4c3)n2)CC1` the same measures were 34.4 µM, 11.9 µM and “inactive”.
For `O=S(=O)(CC(CN1CCCCC1)N1CCCCC1)c1ccccc1` (stereo not drawn), in that order: 38.2 µM, 18.2 µM and “inactive”.
For `CN(C)CCNc1ccc2nnn3c4ccc(O)cc4c(=O)c1c23`, in that order: 45.4 µM, 43 µM and “inactive”.
For the molecule `Cc1ccc(S(=O)(=O)c2nc(-c3ccccc3Cl)oc2N(C)C2CCN(C)CC2)cc1`, the results for the IC50 with PEG-3 [1] (setting [3]) and in the test with PEG-3 [1] (setting [4]) were 32.7 µM and 20.6 µM, respectively. The IC50 result on PEG-3 [2] was “inactive”.
For `Cc1c(C(=O)N2CCC3(CC2)OCCO3)sc2ncnc(N3CCN(c4ccccn4)CC3)c12` the same measures were 24 µM, 29 µM and “inactive”.
For `CC(=O)c1c(NCCc2ccccc2)nc(=S)n(-c2ccccc2)c1C` the same measures were 17.2 µM, 10.3 µM and 13.8 µM.
For `C/C(=N\N=C(N)N)c1ccc(Cl)c(Cl)c1` the same measures were 20.3 µM, 17 µM and 18.7 µM.
Turning to `CN(C)c1ccc(C(C(=O)NCc2ccccc2)N(Cc2ccco2)C(=O)c2snc(C(N)=O)c2N)cc1` (stereo not drawn), the IC50 is over 100 µM in the test on PEG-3 [1] (setting [3]), over 100 µM with PEG-3 [1] (setting [4]) and > 100 µM (inactive) at PEG-3 [2].
For the molecule `COc1ccc(N(Cc2cc3cc(OC)ccc3[nH]c2=O)S(=O)(=O)c2ccc(NC(C)=O)cc2)cc1`, the IC50 in the test with PEG-3 [1] (setting [3]) was 17.8 µM; in the test with PEG-3 [1] (setting [4]), 11 µM; at PEG-3 [2], 14.4 µM.
